# Several values for one entry are separate records, joined by “and”; a condition that tells them apart may be missing. Equal entries are not always repeated.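 1) Cells in 96-well plates. 2) Compound, 48 h, 5 concentrations. 3) Linear interpolation between surrounding doses. 4) Unreached endpoint = highest concentration. The concentration for 50% growth inhibition is given as GI50. TGI marks complete inhibition of growth.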
# Tests used:
# Assay in all cases: inhibition of tumour cell growth, NCI panel, 48 h
# 786-0 renal = tested on: 786-0 renal
# BT-549 breast = tested on: BT-549 breast
# DLD-1 colon = tested on: DLD-1 colon
# HOP-18 NSCLC = tested on: HOP-18 NSCLC
# HT29 colon = tested on: HT29 colon
# IGROV1 ovarian = tested on: IGROV1 ovarian
# K-562 leukemia = tested on: K-562 leukemia
# KM12 colon = tested on: KM12 colon
# KM20L2 colon = tested on: KM20L2 colon
# M19-MEL melanoma = tested on: M19-MEL melanoma
# NCI-H226 lung = tested on: NCI-H226 lung
# SF-268 CNS = tested on: SF-268 CNS
# SF-295 CNS = tested on: SF-295 CNS
# SK-MEL-28 melanoma = tested on: SK-MEL-28 melanoma
# SN12C renal = tested on: SN12C renal
# SNB-19 CNS = tested on: SNB-19 CNS
# SNB-75 CNS = tested on: SNB-75 CNS
# SNB-78 CNS = tested on: SNB-78 CNS
# SW-620 colon = tested on: SW-620 colon
# T-47D breast = tested on: T-47D breast
# U251 CNS = tested on: U251 CNS
# A498 renal = tested on: A498 renal
# A549 NSCLC = tested on: A549 NSCLC
# ACHN renal = tested on: ACHN renal
# CAKI-1 renal = tested on: CAKI-1 renal
# CCRF-CEM leukemia = tested on: CCRF-CEM leukemia
# COLO 205 colon = tested on: COLO 205 colon
# DMS 114 small cell lung = tested on: DMS 114 small cell lung
# DMS 273 small cell lung = tested on: DMS 273 small cell lung
# DU-145 prostate = tested on: DU-145 prostate
# EKVX NSCLC = tested on: EKVX NSCLC
# HCC-2998 colon = tested on: HCC-2998 colon
# HCT-116 colon = tested on: HCT-116 colon
# HCT-15 colon = tested on: HCT-15 colon
# HL-60(TB) leukemia = tested on: HL-60(TB) leukemia
# HOP-62 NSCLC = tested on: HOP-62 NSCLC
# HOP-92 NSCLC = tested on: HOP-92 NSCLC
# HS 578T breast = tested on: HS 578T breast
# LOX IMVI melanoma = tested on: LOX IMVI melanoma
# LXFL 529 NSCLC = tested on: LXFL 529 NSCLC
# M14 melanoma = tested on: M14 melanoma
# MALME-3M melanoma = tested on: MALME-3M melanoma
# MCF7 breast = tested on: MCF7 breast
# MDA-MB-231 breast = tested on: MDA-MB-231 breast
# MDA-MB-435 = tested on: MDA-MB-435
# MDA-N = tested on: MDA-N
# MOLT-4 leukemia = tested on: MOLT-4 leukemia
# NCI-H23 lung = tested on: NCI-H23 lung
# NCI-H460 lung = tested on: NCI-H460 lung
# NCI-H522 lung = tested on: NCI-H522 lung
# NCI/ADR-RES ovarian = tested on: NCI/ADR-RES ovarian
# OVCAR-3 ovarian = tested on: OVCAR-3 ovarian
# OVCAR-4 ovarian = tested on: OVCAR-4 ovarian
# OVCAR-5 ovarian = tested on: OVCAR-5 ovarian
# OVCAR-8 ovarian = tested on: OVCAR-8 ovarian
# PC-3 prostate = tested on: PC-3 prostate
# RPMI-8226 leukemia = tested on: RPMI-8226 leukemia
# RXF 393 renal = tested on: RXF 393 renal
# SF-539 CNS = tested on: SF-539 CNS
# SK-MEL-2 melanoma = tested on: SK-MEL-2 melanoma
# SK-MEL-5 melanoma = tested on: SK-MEL-5 melanoma
# SK-OV-3 ovarian = tested on: SK-OV-3 ovarian
# SR leukemia = tested on: SR leukemia
# TK-10 renal = tested on: TK-10 renal
# UACC-257 melanoma = tested on: UACC-257 melanoma
# UACC-62 melanoma = tested on: UACC-62 melanoma
# UO-31 renal = tested on: UO-31 renal
# XF 498 CNS = tested on: XF 498 CNS
smiles,measurement,setting,value
Nc1nc(=S)c2ncn(C3CC(O)C(CO)O3)c2[nH]1 (stereo not given),TGI,786-0 renal,> 2350 µM
same,TGI,BT-549 breast,883 µM and 4760 µM
same,TGI,DLD-1 colon,340 µM and 1740 µM
same,TGI,HOP-18 NSCLC,> 983 µM and 4020 µM
same,TGI,HT29 colon,> 466 µM and 2190 µM
same,TGI,IGROV1 ovarian,521 µM and 2870 µM
same,TGI,K-562 leukemia,333 µM and 2590 µM
same,TGI,KM12 colon,75 µM and 700 µM
same,TGI,KM20L2 colon,421 µM and 2940 µM
same,TGI,M19-MEL melanoma,> 4680 µM
same,TGI,NCI-H226 lung,639 µM and > 5000 µM
same,TGI,SF-268 CNS,555 µM and > 5000 µM
same,TGI,SF-295 CNS,382 µM and 3310 µM
same,TGI,SK-MEL-28 melanoma,594 µM and > 5000 µM
same,TGI,SN12C renal,353 µM and 3130 µM
same,GI50,SNB-19 CNS,77.3 µM and 753 µM
same,TGI,SNB-19 CNS,> 5000 µM
same,TGI,SNB-75 CNS,377 µM and 3000 µM
same,TGI,SNB-78 CNS,> 5000 µM
same,TGI,SW-620 colon,385 µM and 3540 µM
same,TGI,T-47D breast,438 µM and > 3110 µM
same,TGI,U251 CNS,901 µM and > 4730 µM
Cc1cc(N(CCOS(C)(=O)=O)CCOS(C)(=O)=O)ccc1C=Nc1ccc(-c2nc(Cc3ccccc3)sc2C)cc1,TGI,786-0 renal,15.1 µM
same,TGI,A498 renal,6.39 µM
same,TGI,A549 NSCLC,21.6 µM
same,TGI,ACHN renal,3.51 µM
same,TGI,BT-549 breast,34.8 µM
same,TGI,CAKI-1 renal,9.2 µM
same,TGI,CCRF-CEM leukemia,24.3 µM
same,TGI,COLO 205 colon,4.76 µM
same,TGI,DLD-1 colon,31.9 µM
same,TGI,DMS 114 small cell lung,27.7 µM
same,TGI,DMS 273 small cell lung,21.7 µM
same,TGI,DU-145 prostate,11.7 µM
same,TGI,EKVX NSCLC,15.8 µM
same,TGI,HCC-2998 colon,15.7 µM
same,TGI,HCT-116 colon,35 µM
same,TGI,HCT-15 colon,35.2 µM
same,TGI,HL-60(TB) leukemia,28.9 µM
same,TGI,HOP-18 NSCLC,23.4 µM
same,TGI,HOP-62 NSCLC,20.8 µM
same,TGI,HOP-92 NSCLC,25.4 µM
same,TGI,HS 578T breast,34.6 µM
same,TGI,HT29 colon,21.4 µM
same,TGI,IGROV1 ovarian,28 µM
same,TGI,K-562 leukemia,65.5 µM
same,TGI,KM12 colon,34 µM
same,TGI,KM20L2 colon,21.2 µM
same,TGI,LOX IMVI melanoma,20.2 µM
same,TGI,LXFL 529 NSCLC,> 50.3 µM
same,TGI,M14 melanoma,20.7 µM
same,TGI,M19-MEL melanoma,24.3 µM
same,TGI,MALME-3M melanoma,26.8 µM
same,TGI,MCF7 breast,49.7 µM
same,TGI,MDA-MB-231 breast,26.9 µM
same,TGI,MDA-MB-435,26.6 µM
same,TGI,MDA-N,29 µM
same,TGI,MOLT-4 leukemia,22.4 µM
same,TGI,NCI-H226 lung,22.6 µM
same,TGI,NCI-H23 lung,17.8 µM
same,TGI,NCI-H460 lung,5.03 µM
same,TGI,NCI-H522 lung,0.648 µM
same,TGI,NCI/ADR-RES ovarian,47.8 µM
same,TGI,OVCAR-3 ovarian,19.6 µM
same,TGI,OVCAR-4 ovarian,36.8 µM
same,TGI,OVCAR-5 ovarian,37.8 µM
same,TGI,OVCAR-8 ovarian,41.8 µM
same,TGI,PC-3 prostate,22.1 µM
same,TGI,RPMI-8226 leukemia,31.8 µM
same,TGI,RXF 393 renal,4.92 µM
same,TGI,SF-268 CNS,20.4 µM
same,TGI,SF-295 CNS,32.4 µM
same,TGI,SF-539 CNS,14.8 µM
same,TGI,SK-MEL-2 melanoma,34.9 µM
same,TGI,SK-MEL-28 melanoma,35.3 µM
same,TGI,SK-MEL-5 melanoma,26.7 µM
same,TGI,SK-OV-3 ovarian,4.56 µM
same,TGI,SN12C renal,26.3 µM
same,TGI,SNB-19 CNS,43.9 µM
same,TGI,SNB-75 CNS,12.3 µM
same,TGI,SNB-78 CNS,81.2 µM
same,TGI,SR leukemia,18.5 µM
same,TGI,SW-620 colon,45.4 µM
same,TGI,T-47D breast,23.8 µM
same,TGI,TK-10 renal,33.9 µM
same,TGI,U251 CNS,22.8 µM
same,TGI,UACC-257 melanoma,28.4 µM
same,TGI,UACC-62 melanoma,16.7 µM
same,TGI,UO-31 renal,18.3 µM
same,TGI,XF 498 CNS,9.12 µM
